Experimental data: paper PMC7180572, “5-Alkylamino-N-phenylpyrazine-2-carboxamides: Design, Preparation, and Antimycobacterial Evaluation” (Molecules, 2020)
Values after ≈ are worked out from the molar mass of the structure shown. Where two headings read alike, the source gives them in different places.

Experiments:
[1] = tested on: Absidia corymbifera CCM 8077 (Lichtheimia corymbifera); assay: Antifungal microdilution broth method (EUCAST); type: cell-based; settings: read-out: MIC AC
[2] = tested on: Escherichia coli ATCC 25922, CCM 3954; assay: Antibacterial microdilution broth method (EUCAST); type: cell-based; settings: read-out: MIC EC
[3] = tested on: Aspergillus fumigatus ATCC 204305; assay: Antifungal microdilution broth method (EUCAST); type: cell-based; settings: read-out: MIC AF
[4] = tested on: Candida tropicalis ATCC 750, CCM 8264; assay: Antifungal microdilution broth method (EUCAST); type: cell-based; settings: read-out: MIC CT
[5] = tested on: Mycobacterium smegmatis DSM 43465 (ATCC 607); assay: Microdilution broth, modified Microplate Alamar Blue Assay, whole cell growth inhibition; type: cell-based; settings: Mycolicibacterium smegmatis, read-out: MIC Mycobacterium smegmatis
[6] = tested on: Staphylococcus epidermidis ATCC 12228, CCM 4418; assay: Antibacterial microdilution broth method (EUCAST); type: cell-based; settings: read-out: MIC SE
[7] = tested on: Candida albicans ATCC 24433, CCM 8320; assay: Antifungal microdilution broth method (EUCAST); type: cell-based
[8] = tested on: Staphylococcus aureus spp.aureus ATCC 29213, CCM 4223; assay: Antibacterial microdilution broth method (EUCAST); type: cell-based; settings: read-out: MIC SA
[9] = tested on: Trichophyton interdigitale ATCC 9533, CCM 8377; assay: Antifungal microdilution broth method (EUCAST); type: cell-based; settings: read-out: MIC TI
[10] = tested on: Aspergillus flavus CCM 8363; assay: Antifungal microdilution broth method (EUCAST); type: cell-based; settings: read-out: MIC AFla
[11] = tested on: Mycobacterium tuberculosis H37Ra ITM-M006710 (ATCC 9431); assay: Microdilution broth, modified Microplate Alamar Blue Assay, whole cell growth inhibition; type: cell-based; settings: Mycobacterium tuberculosis; in vitro, Middlebrook 7H9 broth, resazurin; read-out: MIC Mtb H37Ra
[12] = tested on: Mycobacterium aurum DSM 43999 (ATCC 23366); assay: as above; type: cell-based; settings: Mycolicibacterium aurum, read-out: MIC Mycobacterium aurum
HepG2 cells = assay: HepG2 cytotoxicity, CellTiter 96 (MTS) assay; type: cell-based, human; settings: for IC50: Homo sapiens, HepG2, 24 h, read-out: HepG2 IC50
[13] = tested on: Klebsiella pneumoniae ATCC 10031, CCM 4415; assay: Antibacterial microdilution broth method (EUCAST)
[14] = tested on: Pseudomonas aeruginosa ATCC 27853, CCM 3955; assay: Antibacterial microdilution broth method (EUCAST); type: cell-based; settings: read-out: MIC PA
[15] = tested on: Candida krusei ATCC 6258, CCM 8271; assay: Antifungal microdilution broth method (EUCAST); type: cell-based; settings: Pichia kudriavzevii
[16] = tested on: Enterococcus faecalis ATCC 29212, CCM 4224; assay: Antibacterial microdilution broth method (EUCAST); type: cell-based; settings: read-out: MIC EF
[17] = tested on: Candida parapsilosis ATCC 22019, CCM 8260; assay: Antifungal microdilution broth method (EUCAST); type: cell-based; settings: Lodderomyces parapsilosis
[18] = tested on: Acinetobacter baumanii ATCC 19606, DSM 30007; assay: Antibacterial microdilution broth method (EUCAST); type: cell-based; settings: Acinetobacter baumannii
[19] = tested on: Staphylococcus aureus methicillin resistant ATCC 43300, CCM 4750; assay: microbe, parasite or virus in culture; type: cell-based; settings: ATCC 43300 / CCM 4750 / MRSA, read-out: MIC MRSA

`CCCCCNc1cnc(C(=O)Nc2cccc(C(F)(F)F)c2)cn1` [Compound 1c, 5-(Pentylamino)-N-(3-(trifluoromethyl)phenyl)pyrazine-2-carboxamide] showed an MIC ([1]; CCM8077, 24 h) of over 125 µM, an MIC ([1]; CCM8077, 48 h) of over 125 µM and an MIC ([2]; 24 h) of over 500 µM. The MIC ([2]; 48 h) was over 500 µM, the MIC ([3]; ATCC204305, 24 h) was over 125 µM and the MIC ([3]; ATCC204305, 48 h) was over 125 µM. For the same compound, the MIC ([4]; 24 h) was over 125 µM, the MIC ([4]; 48 h) was over 125 µM and the MIC [5] was 1.56 µg/mL (≈ 4.43 µM). For the same compound, the MIC ([6]; 24 h) was over 500 µM, the MIC ([6]; 48 h) was over 500 µM and the MIC ([7]; 24 h, read-out: MIC CA) was over 125 µM. For the same compound, the MIC ([7]; 48 h, read-out: MIC CA) was over 125 µM, the MIC ([7]; read-out: MIC CA (Candida albicans)) was over 125 µM and the MIC ([8]; 24 h) was over 500 µM. The MIC ([8]; 48 h) was over 500 µM, the MIC ([9]; 72 h) was over 125 µM and the MIC ([9]; 120 h) was over 125 µM. It also gave a melting point of 128 to 129 °C, an MIC ([10]; CCM8363, 24 h) of over 125 µM and an MIC ([10]; CCM8363, 48 h) of over 125 µM. It also gave an MIC [11] of 3.13 µg/mL (≈ 8.88 µM), an MIC [12] of 3.13 µg/mL (≈ 8.88 µM) and an IC50 (HepG2 cells) of 18.9 µM. The “SI, selectivity index” value (HepG2 cells; IC50 (HepG2)/MIC against Mtb H37Ra (in µM)) was 2.13, the “MIC KP” value ([13]; 24h) was over 500 µM and the “MIC KP” value ([13]; 48h) was over 500 µM. For the same compound, the MIC ([14]; 72 h) was over 500 µM, the MIC ([14]; 120 h) was over 500 µM and the MIC ([15]; 24 h, read-out: MIC CK) was 62.5 µM (≈ 22 µg/mL). For the same compound, the MIC ([15]; 48 h, read-out: MIC CK) was 62.5 µM (≈ 22 µg/mL), the MIC ([15]; read-out: MIC CK (Candida krusei)) was 62.5 µM (≈ 22 µg/mL) and the MIC ([16]; 24 h) was over 500 µM. For the same compound, the MIC ([16]; 48 h) was over 500 µM, the MIC ([17]; 24 h, read-out: MIC CP) was 125 µM (≈ 44 µg/mL) and the MIC ([17]; 48 h, read-out: MIC CP) was 125 µM (≈ 44 µg/mL). For the same compound, the MIC ([17]; read-out: MIC CP (Candida parapsilosis)) was 125 µM (≈ 44 µg/mL), the MIC ([18]; 24h) was over 500 µM and the MIC ([18]; 48h) was over 500 µM. For the same compound, the MIC ([19]; 24 h) was over 500 µM and the MIC ([19]; 48 h) was over 500 µM.
Compound `CCCCCCNc1cnc(C(=O)Nc2cccc(C(F)(F)F)c2)cn1` [Compound 1d, 5-(Hexylamino)-N-(3-(trifluoromethyl)phenyl)pyrazine-2-carboxamide] has an MIC ([1]; CCM8077, 24 h) of over 500 µM, an MIC ([1]; CCM8077, 48 h) of over 500 µM and an MIC ([2]; 24 h) of over 500 µM. It also gave an MIC ([2]; 48 h) of over 500 µM, an MIC ([3]; ATCC204305, 24 h) of over 500 µM and an MIC ([3]; ATCC204305, 48 h) of over 500 µM. For the same compound, the MIC ([4]; 24 h) was over 500 µM, the MIC ([4]; 48 h) was over 500 µM and the MIC [5] was at least 500 µg/mL. For the same compound, the MIC ([6]; 24 h) was over 500 µM, the MIC ([6]; 48 h) was over 500 µM and the MIC ([7]; 24 h, read-out: MIC CA) was over 500 µM. It also gave an MIC ([7]; 48 h, read-out: MIC CA) of over 500 µM, an MIC ([8]; 24 h) of over 500 µM and an MIC ([8]; 48 h) of over 500 µM. For the same compound, the MIC ([9]; 72 h) was over 500 µM, the MIC ([9]; 120 h) was over 500 µM and the melting point was 148 to 149 °C. The MIC ([10]; CCM8363, 24 h) was over 500 µM, the MIC ([10]; CCM8363, 48 h) was over 500 µM and the MIC [11] was at least 500 µg/mL. The MIC [12] was 25 µg/mL (≈ 68.2 µM), the IC50 (HepG2 cells) was over 25 µM and the “MIC KP” value ([13]; 24h) was over 500 µM. For the same compound, the “MIC KP” value ([13]; 48h) was over 500 µM, the MIC ([14]; 72 h) was over 500 µM and the MIC ([14]; 120 h) was over 500 µM. The MIC ([15]; 24 h, read-out: MIC CK) was over 500 µM, the MIC ([15]; 48 h, read-out: MIC CK) was over 500 µM and the MIC ([16]; 24 h) was over 500 µM. The MIC ([16]; 48 h) was over 500 µM, the MIC ([17]; 24 h, read-out: MIC CP) was over 500 µM and the MIC ([17]; 48 h, read-out: MIC CP) was over 500 µM. For the same compound, the MIC ([18]; 24h) was over 500 µM, the MIC ([18]; 48h) was over 500 µM and the MIC ([19]; 24 h) was over 500 µM. The MIC ([19]; 48 h) was over 500 µM.
